Legend:
Dipeptidyl peptidase 4 [1] = biological target: T1, Dipeptidyl peptidase 4 (Homo sapiens, UniProt P27487); experiment: Inhibition of h-DPPIV
Prolyl endopeptidase = biological target: T2, Prolyl endopeptidase (Homo sapiens, UniProt P48147); experiment: Inhibition of h-POP
T2 sequence (P48147 whole entry): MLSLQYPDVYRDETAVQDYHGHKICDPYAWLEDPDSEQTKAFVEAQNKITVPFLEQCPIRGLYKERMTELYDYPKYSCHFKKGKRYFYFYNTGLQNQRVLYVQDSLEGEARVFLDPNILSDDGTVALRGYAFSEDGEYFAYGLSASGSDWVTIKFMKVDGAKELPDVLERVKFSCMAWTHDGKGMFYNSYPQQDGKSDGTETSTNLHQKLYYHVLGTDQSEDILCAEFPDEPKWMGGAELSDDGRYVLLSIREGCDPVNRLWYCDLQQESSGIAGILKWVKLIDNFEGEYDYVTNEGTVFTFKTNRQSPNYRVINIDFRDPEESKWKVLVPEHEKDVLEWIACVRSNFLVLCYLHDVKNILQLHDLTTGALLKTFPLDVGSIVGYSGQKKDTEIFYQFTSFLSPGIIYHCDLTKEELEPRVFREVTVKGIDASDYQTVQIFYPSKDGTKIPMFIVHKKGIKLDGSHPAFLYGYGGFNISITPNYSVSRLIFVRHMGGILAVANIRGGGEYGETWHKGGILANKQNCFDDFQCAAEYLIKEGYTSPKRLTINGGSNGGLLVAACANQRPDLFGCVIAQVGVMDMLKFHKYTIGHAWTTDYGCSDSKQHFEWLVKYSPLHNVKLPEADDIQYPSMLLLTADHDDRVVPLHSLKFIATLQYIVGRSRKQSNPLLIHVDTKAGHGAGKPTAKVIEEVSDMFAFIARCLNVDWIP

Dipeptidyl peptidase 8 = Dipeptidyl peptidase 8 (Homo sapiens, UniProt Q6V1X1); experiment: Inhibition of h-DPP8
Dipeptidyl peptidase 4 [2] = biological target: T1, Dipeptidyl peptidase 4; experiment: Human DPPIV plasma binding (0% plasma); assay type: cell-free
Dipeptidyl peptidase 9 = Dipeptidyl peptidase 9 (Homo sapiens, UniProt Q86TI2); experiment: Inhibition of h-DPP9
Chain of Dipeptidyl peptidase 9 (Q86TI2 whole entry): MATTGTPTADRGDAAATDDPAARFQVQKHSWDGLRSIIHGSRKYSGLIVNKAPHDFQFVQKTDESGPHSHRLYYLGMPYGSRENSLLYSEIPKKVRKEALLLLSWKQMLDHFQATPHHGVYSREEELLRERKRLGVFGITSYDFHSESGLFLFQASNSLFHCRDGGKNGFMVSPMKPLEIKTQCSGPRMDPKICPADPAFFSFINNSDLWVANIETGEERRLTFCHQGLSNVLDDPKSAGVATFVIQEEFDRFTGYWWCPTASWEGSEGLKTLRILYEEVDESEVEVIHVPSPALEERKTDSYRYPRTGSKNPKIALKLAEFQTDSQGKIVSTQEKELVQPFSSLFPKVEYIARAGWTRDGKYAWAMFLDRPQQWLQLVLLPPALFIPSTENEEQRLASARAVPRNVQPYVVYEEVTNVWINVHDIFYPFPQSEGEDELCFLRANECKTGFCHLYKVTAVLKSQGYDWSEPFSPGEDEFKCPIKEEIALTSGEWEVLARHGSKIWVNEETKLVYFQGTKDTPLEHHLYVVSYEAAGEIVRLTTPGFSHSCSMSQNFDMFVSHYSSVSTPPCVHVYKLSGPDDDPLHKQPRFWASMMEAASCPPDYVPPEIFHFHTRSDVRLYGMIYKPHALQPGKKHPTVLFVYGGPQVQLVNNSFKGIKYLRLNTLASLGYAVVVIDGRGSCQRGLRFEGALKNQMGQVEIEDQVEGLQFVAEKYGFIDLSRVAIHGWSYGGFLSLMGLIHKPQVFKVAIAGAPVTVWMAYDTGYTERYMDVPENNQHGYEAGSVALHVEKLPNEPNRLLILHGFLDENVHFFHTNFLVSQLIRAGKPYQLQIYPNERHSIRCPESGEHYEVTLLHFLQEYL

Chain of Dipeptidyl peptidase 8 (Q6V1X1 whole entry): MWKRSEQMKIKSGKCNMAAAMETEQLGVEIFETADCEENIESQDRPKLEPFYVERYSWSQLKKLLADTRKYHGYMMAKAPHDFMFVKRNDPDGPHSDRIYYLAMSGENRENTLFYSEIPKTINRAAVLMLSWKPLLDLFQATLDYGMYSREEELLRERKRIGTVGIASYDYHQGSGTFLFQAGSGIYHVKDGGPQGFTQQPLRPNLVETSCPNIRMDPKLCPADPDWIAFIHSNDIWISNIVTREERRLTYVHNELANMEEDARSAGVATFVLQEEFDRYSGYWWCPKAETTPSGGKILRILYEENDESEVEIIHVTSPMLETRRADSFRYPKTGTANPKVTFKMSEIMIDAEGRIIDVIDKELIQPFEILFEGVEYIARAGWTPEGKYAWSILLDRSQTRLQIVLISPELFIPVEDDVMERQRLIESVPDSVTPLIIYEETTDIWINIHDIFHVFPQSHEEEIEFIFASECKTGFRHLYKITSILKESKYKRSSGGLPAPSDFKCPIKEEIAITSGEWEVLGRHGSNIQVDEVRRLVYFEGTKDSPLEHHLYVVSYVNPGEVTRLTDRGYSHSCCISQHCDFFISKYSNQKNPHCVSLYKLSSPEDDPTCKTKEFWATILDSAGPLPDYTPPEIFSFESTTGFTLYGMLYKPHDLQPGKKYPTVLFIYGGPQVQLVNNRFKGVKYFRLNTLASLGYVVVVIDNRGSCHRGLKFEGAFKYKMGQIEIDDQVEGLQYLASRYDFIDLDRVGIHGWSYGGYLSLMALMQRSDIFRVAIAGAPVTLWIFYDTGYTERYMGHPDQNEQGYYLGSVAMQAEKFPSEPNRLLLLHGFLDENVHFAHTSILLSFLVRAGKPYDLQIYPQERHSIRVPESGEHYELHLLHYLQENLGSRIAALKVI
T1 sequence (P27487 whole entry): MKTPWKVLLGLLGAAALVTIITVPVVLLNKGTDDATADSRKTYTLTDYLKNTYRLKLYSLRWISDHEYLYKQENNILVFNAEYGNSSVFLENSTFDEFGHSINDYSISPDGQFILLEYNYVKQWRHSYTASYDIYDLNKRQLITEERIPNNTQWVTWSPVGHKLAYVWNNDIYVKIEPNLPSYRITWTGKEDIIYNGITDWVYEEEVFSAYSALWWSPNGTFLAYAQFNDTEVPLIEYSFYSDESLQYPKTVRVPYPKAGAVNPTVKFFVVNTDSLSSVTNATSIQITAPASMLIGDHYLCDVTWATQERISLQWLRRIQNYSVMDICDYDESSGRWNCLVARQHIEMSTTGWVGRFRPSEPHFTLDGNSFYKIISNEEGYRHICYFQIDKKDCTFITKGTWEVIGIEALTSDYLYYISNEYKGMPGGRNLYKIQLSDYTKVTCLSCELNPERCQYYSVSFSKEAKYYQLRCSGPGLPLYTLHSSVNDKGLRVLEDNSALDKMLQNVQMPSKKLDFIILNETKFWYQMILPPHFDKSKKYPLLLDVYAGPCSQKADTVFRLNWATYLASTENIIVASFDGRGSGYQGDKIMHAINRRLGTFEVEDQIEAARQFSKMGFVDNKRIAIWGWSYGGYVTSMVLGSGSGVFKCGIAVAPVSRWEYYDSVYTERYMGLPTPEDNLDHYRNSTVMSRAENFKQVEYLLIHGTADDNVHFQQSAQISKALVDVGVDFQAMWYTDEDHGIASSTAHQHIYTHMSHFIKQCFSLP

Row | SMILES | Ki (Dipeptidyl peptidase 4 [1]) [nM] | Ki (Prolyl endopeptidase) [nM] | Ki (Dipeptidyl peptidase 8) [nM] | Ki (Dipeptidyl peptidase 4 [2]) [nM] | Ki (Dipeptidyl peptidase 9) [nM] | IC50 (Dipeptidyl peptidase 4 [1]) [nM]
1 | Cn1ncc2c(nc(N3CCCC(N)C3)n2Cc2ccccc2C#N)c1=O (stereo not drawn) | 260 |  |  |  |  | 
2 | Cn1ncc2nc(N3CCCC(N)C3)n(Cc3cccc(CC#N)c3)c2c1=O (stereo not drawn) | 11 | > 30000 | > 3000 |  |  | 
3 | Cn1c(=O)c2nc(N3CCCC(N)C3)n(Cc3ccccc3C#N)c2c(=O)n1C (stereo not drawn) |  | > 30000 |  |  |  | 
4 | Cn1c(=O)c2c(nc(N3CCCC(N)C3)n2Cc2ccccc2C#N)n(C)c1=O (stereo not drawn) | 2 | > 30000 | > 30000 | 2 |  | 
5 | CN1C(=O)c2nc(N3CCCC(N)C3)n(Cc3ccccc3C#N)c2C1=O (stereo not drawn) |  | > 30000 |  |  | > 3000 | 
6 | NC1CCCN(c2nc3c(n2Cc2ccccc2C(F)(F)F)C(=O)c2ccccc2C3=O)C1 (stereo not drawn) | 25 |  | > 30000 |  | > 3000 | 
7 | Cn1ncc2nc(N3CCCC(N)C3)n(Cc3ccccc3C#N)c2c1=O (stereo not drawn) | 5 | > 30000 | > 3000 |  |  | 
8 | CN1C(=O)C=C(N2CCC[C@@H](N)C2)C(Cc2ccccc2C#N)C1=O (stereo partly drawn) |  |  |  |  |  | 4
